Data from ChEMBL document CHEMBL3351580, “Pyrano-isochromanones as IL-6 inhibitors: synthesis, in vitro and in vivo antiarthritic activity” (J Med Chem, 2014).
Values belong to the compound of their own block, whether it stands above or below them. Activity calls are given as the source filed them. No cut-off for these calls is given here.

Tests used:
[1] = Inhibition of concanavalin A-induced cell proliferation of T cells (unknown origin) at 10 uM after 72 hrs by MTT assay; type: functional
[2] = tested on: B-cell; assay: Inhibition of LPS-induced cell proliferation of B cells (unknown origin) at 10 uM after 72 hrs by MTT assay; type: functional
[3] = tested on: THP-1; assay: Inhibition of LPS-induced TNFalpha production in human THP1 cells after 24 hrs; type: functional, cell-based; settings: THP-1, 24 h
[4] = tested on: THP-1; assay: Inhibition of LPS-induced IL6 production in human THP1 cells after 24 hrs; type: functional, cell-based; settings: THP-1, 24 h
[5] = Solubility in water; type: physicochemical
[6] = tested on: Mus musculus; assay: Antiarthritic activity in BALB/c mouse assessed as reduction in SRBC-induced blood IL4 level administered orally once daily for 14 days measured 4 hrs post last dose by ELISA method; type: functional, organism-based
[7] = tested on: Mus musculus; assay: Antiarthritic activity in DBA/1J mouse collagen-induced arthritis model assessed as reduction in IL6 level at 3 to 30 mg/kg, po administered once daily for 49 days starting from onset of disease and measured after 3 to 49 days of disease onset by ELISA method; type: functional, organism-based
[8] = tested on: THP-1; assay: Cytotoxicity against human THP1 cells after 24 hrs by MTT assay; type: cell-based; settings: THP-1, 24 h
[9] = tested on: Mus musculus; assay: Antiarthritic activity in DBA/1J mouse collagen-induced arthritis model assessed as reduction in anticollagen antibody IgG2a level at 3 to 30 mg/kg, po administered once daily for 49 days starting from onset of disease and measured after 14 days of disease onset by ELISA method; type: functional, organism-based
[10] = tested on: Mus musculus; assay: Immunosuppressive activity in BALB/c mouse assessed as reduction in SRBC-induced humoral immunity by measuring IgG level at 3 to 30 mg/kg, po administered once daily for 14 days measured 4 hrs post last dose; type: functional, organism-based
[11] = tested on: Mus musculus; assay: Antiinflammatory activity in BALB/c mouse assessed as serum nitric oxide level at 100 mg/kg, po qd for 5 days followed by LPS challenge 1 hr after last compound dose on fifth day and measured 4 hrs post LPS challenge by Griess assay (reference value: 6.95 +/- 1.81 uM); type: functional
[12] = Therapeutic index, ratio of cytotoxic IC50 for human THP1 cells by MTT assay to IC50 for inhibition of LPS-induced IL6 production in human THP1 cells; type: cell-based, THP-1; settings: read-out: Ratio IC50
[13] = tested on: THP-1; assay: Inhibition of LPS-induced nitric oxide production in human THP1 cells at 10 uM after 24 hrs by Griess assay; type: functional; settings: THP-1, 24 h
[14] = tested on: Mus musculus; assay: Immunosuppressive activity in BALB/c mouse assessed as reduction in SRBC-induced DTH response at 3 to 30 mg/kg, po administered once daily for 14 days measured 4 hrs post last dose; type: functional, organism-based
[15] = tested on: Mus musculus; assay: Antiinflammatory activity in BALB/c mouse assessed as serum TNFalpha level at 100 mg/kg, po qd for 5 days followed by LPS challenge 1 hr after last compound dose on fifth day and measured 4 hrs post LPS challenge by ELISA method (reference value: 717 +/- 218 pg/mL); type: functional
[16] = tested on: THP-1; assay: Cytotoxicity against human THP1 cells after 48 hrs by MTT assay; type: cell-based; settings: THP-1, 48 h
[17] = Solubility in SGF solution; type: physicochemical
[18] = Solubility in SIF solution; type: physicochemical
[19] = tested on: Mus musculus; assay: Antiarthritic activity in BALB/c mouse assessed as reduction in SRBC-induced blood IL2 level administered orally once daily for 14 days measured 4 hrs post last dose by ELISA method; type: functional, organism-based
[20] = tested on: Mus musculus; assay: Antiinflammatory activity in BALB/c mouse assessed as serum TNFalpha level at 10 mg/kg, po qd for 5 days followed by LPS challenge 1 hr after last compound dose on fifth day and measured 4 hrs post LPS challenge by ELISA method (reference value: 717 +/- 218 pg/mL); type: functional
[21] = tested on: Mus musculus; assay: Antiinflammatory activity in BALB/c mouse assessed as serum IL6 level at 100 mg/kg, po qd for 5 days followed by LPS challenge 1 hr after last compound dose on fifth day and measured 4 hrs post LPS challenge by ELISA method (reference value: 410 +/- 95 pg/mL); type: functional
[22] = tested on: Mus musculus; assay: Immunosuppressive activity in BALB/c mouse assessed as reduction in SRBC-induced humoral immunity by measuring IgM level at 3 to 30 mg/kg, po administered once daily for 14 days measured 4 hrs post last dose; type: functional, organism-based
[23] = tested on: Mus musculus; assay: Antiarthritic activity in DBA/1J mouse collagen-induced arthritis model assessed as reduction in IL-1beta level at 3 to 30 mg/kg, po administered once daily for 49 days starting from onset of disease and measured after 3 to 49 days of disease onset by ELISA method; type: functional, organism-based
[24] = tested on: Mus musculus; assay: Antiarthritic activity in DBA/1J mouse collagen-induced arthritis model assessed as reduction in anticollagen antibody IgG1 level at 3 to 30 mg/kg, po administered once daily for 49 days starting from onset of disease and measured after 14 days of disease onset by ELISA method; type: functional, organism-based
[25] = tested on: Mus musculus; assay: Antiinflammatory activity in BALB/c mouse assessed as serum nitric oxide level at 10 mg/kg, po qd for 5 days followed by LPS challenge 1 hr after last compound dose on fifth day and measured 4 hrs post LPS challenge by Griess assay (reference value: 6.95 +/- 1.81 uM); type: functional
[26] = tested on: Mus musculus; assay: Antiarthritic activity in DBA/1J mouse collagen-induced arthritis model assessed as reduction in TNFalpha level at 3 to 30 mg/kg, po administered once daily for 49 days starting from onset of disease and measured after 3 to 49 days of disease onset by ELISA method; type: functional, organism-based
[27] = tested on: Mus musculus; assay: Antiarthritic activity in DBA/1J mouse collagen-induced arthritis model assessed as reduction in anticollagen antibody IgG2a level at 3 to 30 mg/kg, po administered once daily for 49 days starting from onset of disease and measured after 49 days of disease onset by ELISA method; type: functional, organism-based
[28] = tested on: Mus musculus; assay: Antiarthritic activity in DBA/1J mouse collagen-induced arthritis model assessed as reduction in paw swelling at 30 mg/kg, po administered once daily for 49 days starting from onset of disease; type: functional; settings: 1176 h
[29] = tested on: Mus musculus; assay: Antiarthritic activity in BALB/c mouse assessed as reduction in SRBC-induced blood IFNgamma level administered orally once daily for 14 days measured 4 hrs post last dose by ELISA method; type: functional, organism-based
[30] = molecular target: Inhibitor of NF-kappa-B kinase (IKK) (Homo sapiens) (UniProt O14920+O15111+Q9Y6K9); assay: Inhibition of IKKbeta expression in human THP1 cells at 20 to 100 uM by Western blotting method; type: functional, cell-based; settings: THP-1
[31] = tested on: THP-1; assay: Inhibition of LPS-induced IL-1beta production in human THP1 cells at 10 uM after 24 hrs; type: functional; settings: THP-1, 24 h
[32] = Solubility in PBS buffer; type: physicochemical
[33] = tested on: Mus musculus; assay: Antiinflammatory activity in BALB/c mouse assessed as serum IL6 level at 10 mg/kg, po qd for 5 days followed by LPS challenge 1 hr after last compound dose on fifth day and measured 4 hrs post LPS challenge by ELISA method (reference value: 410 +/- 95 pg/mL); type: functional
[34] = tested on: Mus musculus; assay: Antiarthritic activity in DBA/1J mouse collagen-induced arthritis model assessed as reduction in anticollagen antibody IgG1 level at 3 to 30 mg/kg, po administered once daily for 49 days starting from onset of disease and measured after 49 days of disease onset by ELISA method; type: functional, organism-based

SMILES: COc1c(O)c(CN2CCC[C@H]2CO)c2c(c1O)[C@@H]1O[C@H](CO)[C@@H](O)[C@H](O)[C@H]1OC2=O
- inhibition at 10 µM [1]: 37.5%
- inhibition at 10 µM [2]: 31.6%
- IC50 [3]: 13500 nM
- IC50 [4]: 745 nM
- solubility [5]: > 1500 µg/mL

SMILES: COc1c(O)c(CN(C)CC(=O)O)c2c(c1O)[C@@H]1O[C@H](CO)[C@@H](O)[C@H](O)[C@H]1OC2=O
- inhibition at 10 µM [1]: 4%
- inhibition at 10 µM [2]: 17%
- IC50 [3]: > 30000 nM
- IC50 [4]: 1630 nM
- solubility [5]: > 1500 µg/mL

SMILES: COc1c(O)c(CN(C)C)c2c(c1O)[C@@H]1O[C@H](CO)[C@@H](O)[C@H](O)[C@H]1OC2=O
- inhibition at 10 µM [1]: 21.1%
- inhibition at 10 µM [2]: 44%
- IC50 [3]: > 30000 nM
- IC50 [4]: 211 nM
- solubility [5]: > 1500 µg/mL

Second part, led by results:

- IC50 [3]: > 30000 nM
- IC50 [4]: 195 nM
- solubility [5]: > 1500 µg/mL
SMILES: CCN1CCN(Cc2c(O)c(OC)c(O)c3c2C(=O)O[C@@H]2[C@@H](O)[C@H](O)[C@@H](CO)O[C@@H]32)CC1
- inhibition at 10 µM [1]: 34.2%
- inhibition at 10 µM [2]: 44.2%

- IC50 [3]: 16000 nM
- IC50 [4]: 1860 nM
- solubility [5]: > 1500 µg/mL
SMILES: COc1c(O)c(CN2CCOCC2)c2c(c1O)[C@@H]1O[C@H](CO)[C@@H](O)[C@H](O)[C@H]1OC2=O
- inhibition at 10 µM [1]: 37.5%
- inhibition at 10 µM [2]: 31.6%

- solubility [17]: > 1500 µg/mL
- solubility [18]: > 1500 µg/mL
- IC50 [3]: > 30000 nM
- IC50 [4]: 141 nM
- solubility [5]: > 1500 µg/mL
- inhibition [30]: Active
- solubility [32]: > 1500 µg/mL
SMILES: COc1c(O)c(CN2CCN(C)CC2)c2c(c1O)[C@@H]1O[C@H](CO)[C@@H](O)[C@H](O)[C@H]1OC2=O
- inhibition at 10 µM [1]: 36.9%
- inhibition [6]: Dose-dependent effect
- inhibition [7]: Active
- IC50 [8]: 107000 nM
- inhibition [9]: Active
- inhibition [10]: Active
- Activity [11]: 1.24 µM
- inhibition at 10 µM [2]: 49%
- selectivity ratio [12]: > 400
- inhibition at 10 µM [13]: 41%
- inhibition [14]: Active
- Activity [15]: 398 pg/mL
- IC50 [16]: 68000 nM
- inhibition [19]: Dose-dependent effect
- Activity [20]: 672 pg/mL
- Activity [21]: 58 pg/mL
- inhibition [22]: Active
- inhibition [23]: Active
- inhibition [24]: Active
- Activity [25]: 2.87 µM
- inhibition [26]: Active
- inhibition [27]: Active
- inhibition in vivo at 30 mg/kg [28]: 28%
- inhibition [29]: Dose-dependent effect
- inhibition at 10 µM [31]: 41%
- Activity [33]: 282 pg/mL
- inhibition [34]: Active

- IC50 [3]: > 30000 nM
- IC50 [4]: 755 nM
- solubility [5]: > 1500 µg/mL
SMILES: COc1c(O)c(CN2CCCC2)c2c(c1O)[C@@H]1O[C@H](CO)[C@@H](O)[C@H](O)[C@H]1OC2=O
- inhibition at 10 µM [1]: 14.8%
- inhibition at 10 µM [2]: 2.5%
